The molecules below were run on human C-Myc gene transcription in MV-4-11 cells (assay: Transcription of human C-Myc in human leukemic MV-4-11 cells (QuantiGene 2.0 assay)). Conditions: MV4-11, 4 hours treatment, C-Myc mRNA by QuantiGene 2.0, read-out: IC50 (inhibition of C-Myc transcription).
Assay type: cell-based
Procedure: Transcription of Human C-Myc in Human Leukemic MV-4-11 Cells
The effect of compounds on transcription of human C-Myc gene is monitored in human B-myelomonocytic leukemia cell line MV-4-11 (from American Type Culture Collection (ATCC), Manassas, Va., USA) using QuantiGene 2.0 assay kit (Affymetrix, Santa Clara, Calif., USA).
Typically, 8,000 MV-4-11 cells are plated in sterile 96-well plates (Costar #3598 from Fisher Scientific Canada, Ottawa, Ontario, Canada) in Iscove's medium supplemented with 10% fetal bovine serum, glutamine (2 mM), and penicillin (100 I.U.) and streptomycin (100 μg/mL) (all from Wisent Inc., St. Bruno, Quebec, Canada). Compounds are dissolved in DMSO at 30 mM. A series of 1:3 dilutions are first made in DMSO, and further […] dilutions are made in serum-containing cell culture media. The final concentration of DMSO is 0.1% in cell culture media. After cells are treated with various concentrations of test compound for 4 hours, cells are lysed using Quantigene 2.0 sample processing kit (#QS0100). C-Myc mRNA is detected using a QuantiGene 2.0 assay kit (#QS0009) with gene-specific probe to human C-Myc (#SA-50182) following the manufacturer's recommendations. Luminescence signals are read on Flexstation II microplate reader (Molecular Devices, Sunnyvale, Calif., USA).

Row | IC50 [nM] | SMILES
1 | 484 | Cc1cc(-c2ccc3nnc(Cc4ccc(C(F)(F)F)cc4)n3c2)cn(C)c1=O [Compound 10, 1,3-dimethyl-5-[3-[[4-(trifluoromethyl)phenyl]methyl][1,2,4]triazolo[4,3-a]pyridin-6-yl]pyridin-2-one]
2 | 146 | Cc1cc(-c2ccc3nnc(Cc4cccc(C(F)(F)F)c4)n3c2)cn(C)c1=O [Compound 5, 1,3-dimethyl-5-[3-[[3-(trifluoromethyl)phenyl]methyl]-[1,2,4]triazolo[4,3-a]pyridin-6-yl]pyridin-2-one]
3 | 590 | Cc1cc(-c2ccc3nnc(C(C)(C)c4ccc(Cl)cc4)n3c2)cn(C)c1=O [Compound 17, 5-[3-[1-(4-chlorophenyl)-1-methyl-ethyl]-[1,2,4]triazolo[4,3-a]pyridin-6-yl]-1,3-dimethyl-pyridin-2-one]
4 | 156 | Cc1cc(-c2ccc3nnc(Cc4ccc(Cl)cc4)n3c2)cn(C)c1=O [Compound 4, 5-[3-[(4-chlorophenyl)methyl]-[1,2,4]triazolo[4,3-a]pyridin-6-yl]-1,3-dimethyl-pyridin-2-one]
5 | 253 | Cc1cc(-c2ccc3nnc(Cc4ccccc4)n3c2)cn(C)c1=O [Compound 1, 5-(3-benzyl-[1,2,4]triazolo[4,3-a]pyridin-6-yl)-1,3-dimethyl-pyridin-2-one]
6 | 269 | Cc1cc(-c2ccc3nnc(Cc4cccc(F)c4)n3c2)cn(C)c1=O [Compound 13, 5-[3-[(3-fluorophenyl)methyl]-[1,2,4]triazolo[4,3-a]pyridin-6-yl]-1,3-dimethyl-pyridin-2-one]
7 | 835 | Cc1cc(-c2ccc3nnc(CCc4ccccc4)n3c2)cn(C)c1=O [Compound 26, 1,3-dimethyl-5-[3-(2-phenylethyl)-[1,2,4]triazolo[4,3-a]pyridin-6-yl]pyridin-2-one]
8 | 88 | Cc1cccc(C2(c3nnc4ccc(-c5cc(C)c(=O)n(C)c5)cn34)CC2)c1 [Compound 19, 1,3-dimethyl-5-[3-[1-(m-tolyl)cyclopropyl]-[1,2,4]triazolo[4,3-a]pyridin-6-yl]pyridin-2-one]
9 | 90 | Cc1cc(-c2ccc3nnc(C4(c5ccccc5)CC4)n3c2)cn(C)c1=O [Compound 11, 1,3-dimethyl-5-[3-(1-phenylcyclopropyl)-[1,2,4]triazolo[4,3-a]pyridin-6-yl]pyridin-2-one]
10 | 89 | Cc1cc(-c2ccc3nnc(C4(c5cccc(Cl)c5)CC4)n3c2)cn(C)c1=O [Compound 14, 5-[3-[1-(3-chlorophenyl)cyclopropyl]-[1,2,4]triazolo[4,3-a]pyridin-6-yl]-1,3-dimethyl-pyridin-2-one]
11 | 495 | Cc1cc(-c2ccc3nnc(Cc4ccc(F)cc4)n3c2)cn(C)c1=O [Compound 3, 5-[3-[(4-fluorophenyl)methyl]-[1,2,4]triazolo[4,3-a]pyridin-6-yl]-1,3-dimethyl-pyridin-2-one]
12 | 227 | Cc1cc(-c2ccc3nnc(C(C)(C)c4ccccc4)n3c2)cn(C)c1=O [Compound 27, 1,3-dimethyl-5-[3-(1-methyl-1-phenyl-ethyl)-[1,2,4]triazolo[4,3-a]-pyridin-6-yl]pyridin-2-one]
13 | 250 | Cc1cc(-c2ccc3nnc(C4(c5ccc(Cl)cc5)CC4)n3c2)cn(C)c1=O [Compound 15, 5-[3-[1-(4-chlorophenyl)cyclopropyl]-[1,2,4]triazolo[4,3-a]pyridin-6-yl]-1,3-dimethyl-pyridin-2-one]
14 | 54 | Cc1cc(-c2ccc3nnc(C4(c5ccccc5)CCCCC4)n3c2)cn(C)c1=O [Compound 25, 1,3-dimethyl-5-[3-(1-phenylcyclohexyl)-[1,2,4]triazolo[4,3-a]pyridin-6-yl]pyridin-2-one]
15 | 2340 | Cc1cc(-c2ccc3nnc(CC4CCOCC4)n3c2)cn(C)c1=O [Compound 2]
16 | 158 | Cc1cc(-c2ccc3nnc(CC4CCCCC4)n3c2)cn(C)c1=O [Compound 8, 5-[3-(cyclohexylmethyl)-[1,2,4]triazolo[4,3-a]pyridin-6-yl]-1,3-dimethyl-pyridin-2-one]
17 | 90 | Cc1cc(-c2ccc3nnc(C(C)(C)c4cccc(Cl)c4)n3c2)cn(C)c1=O [Compound 24, 5-[3-[1-(3-chlorophenyl)-1-methyl-ethyl]-[1,2,4]triazolo[4,3-a]pyridin-6-yl]-1,3-dimethyl-pyridin-2-one]
18 | 563 | Cc1cc(-c2ccc3nnc(C4(c5ccc(Cl)cc5)CCC4)n3c2)cn(C)c1=O [Compound 18, 5-[3-[1-(4-chlorophenyl)cyclobutyl]-[1,2,4]triazolo[4,3-a]pyridin-6-yl]-1,3-dimethyl-pyridin-2-one]
19 | 226 | Cc1ccc(C2(c3nnc4ccc(-c5cc(C)c(=O)n(C)c5)cn34)CC2)cc1 [Compound 16, 1,3-dimethyl-5-[3-[1-(p-tolyl)cyclopropyl]-[1,2,4]triazolo[4,3-a]pyridin-6-yl]pyridin-2-one]
20 | 461 | Cc1cc(-c2ccc3nnc(Cc4ccccc4F)n3c2)cn(C)c1=O [Compound 6, 5-[3-[(2-fluorophenyl)methyl]-[1,2,4]triazolo[4,3-a]pyridin-6-yl]-1,3-dimethyl-pyridin-2-one]
21 | 85 | Cc1cc(-c2ccc3nnc([C@@H](C)c4ccccc4)n3c2)cn(C)c1=O [Compound 7, 1,3-dimethyl-5-[3-[(1 S)-1-phenylethyl]-[1,2,4]triazolo[4,3-a]pyridin-6-yl]pyridin-2-one]
22 | 158 | Cc1cc(-c2ccc3nnc(C4(c5cccc(F)c5)CC4)n3c2)cn(C)c1=O [Compound 21, 5-[3-[1-(3-fluorophenyl)cyclopropyl]-[1,2,4]triazolo[4,3-a]pyridin-6-yl]-1,3-dimethyl-pyridin-2-one]
23 | 74 | Cc1cc(-c2ccc3nnc(C4(c5ccccc5)CCC4)n3c2)cn(C)c1=O [Compound 22, 1,3-dimethyl-5-[3-(1-phenylcyclobutyl)-[1,2,4]triazolo[4,3-a]pyridin-6-yl]pyridin-2-one]
24 | 61 | Cc1cc(-c2ccc3nnc(C4(c5cccc(C(F)(F)F)c5)CC4)n3c2)cn(C)c1=O [Compound 20, 1,3-dimethyl-5-[3-[1-[3-(trifluoromethyl)phenyl]cyclopropyl][1,2,4]-triazolo[4,3-a]pyridin-6-yl]pyridin-2-one]
25 | 85 | Cc1cc(-c2ccc3nnc(C4(c5ccccc5)CCCC4)n3c2)cn(C)c1=O [Compound 23, 1,3-dimethyl-5-[3-(1-phenylcyclopentyl)-[1,2,4]triazolo[4,3-a]pyridin-6-yl]pyridin-2-one]
26 | 100 | Cc1cc(-c2ccc3nnc([C@H](C)c4ccccc4)n3c2)cn(C)c1=O [Compound 12, 1,3-dimethyl-5-[3-[(1R)-1-phenylethyl]-[1,2,4]triazolo[4,3-a]pyridin-6-yl]pyridin-2-one]
27 | 183 | Cc1cc(-c2ccc3nnc(Cc4cc(F)cc(F)c4)n3c2)cn(C)c1=O [Compound 9, 5-[3-[(3,5-difluorophenyl)methyl]-[1,2,4]triazolo[4,3-a]pyridin-6-yl]-1,3-dimethyl-pyridin-2-one]

— patent publication US10519151B2, “Substituted [1,2,4]triazolo[4,3-A]pyridines, their preparation and their use as pharmaceuticals” (NEOMED Institute, priority 2016, dated 2019)
